In the NIST ThermoML archive (doi:10.1016/j.jct.2005.10.009):

Assays:
[1] = 101.33 kPa, Liquid; for speed of sound: Pulse-echo method; for mass density: Pycnometric method
[2] = molar heat capacity at constant pressure; details: 101 kPa, Liquid, Small sample (50 mg) DSC

CCCCCCC [heptane]
[1]
Details	mass density [kg/m3]	speed of sound [m/s]
293.13 K	–	1151.9
293.15 K	683.81	–
298.12 K	–	1130.3
298.15 K	679.6	–
303.1 K	–	1108.8
303.15 K	675.38	–
308.07 K	–	1087.5
308.15 K	671.05	–
313.03 K	–	1066.3
313.15 K	666.78	–
318.15 K	662.42	–
318.33 K	–	1043.9

CCCCCCCCCCO [decan-1-ol]
Details	mass density [kg/m3]	molar heat capacity at constant pressure [J/K/mol]	speed of sound [m/s]
[1], 293.1 K	–	–	1397.2
[1], 293.15 K	829.77	–	–
[1], 298.07 K	–	–	1380
[1], 298.15 K	826.38	–	–
[1], 303.04 K	–	–	1362.8
[1], 303.15 K	822.98	–	–
[1], 308.04 K	–	–	1345.8
[1], 308.15 K	819.62	–	–
[1], 313.01 K	–	–	1329
[1], 313.15 K	816.15	–	–
[1], 318.15 K	812.67	–	–
[1], 318.18 K	–	–	1311.7
[2], 290.91 K	–	364.49	–
[2], 291.15 K	–	364.8	–
[2], 292.15 K	–	366.05	–
[2], 293.15 K	–	367.19	–
[2], 294.15 K	–	368.25	–
[2], 295.15 K	–	369.35	–
[2], 296.15 K	–	370.35	–
[2], 297.15 K	–	371.6	–
[2], 298.15 K	–	372.77	–
[2], 299.15 K	–	373.71	–
[2], 300.15 K	–	374.91	–
[2], 301.15 K	–	375.89	–
[2], 302.15 K	–	377.05	–
[2], 303.15 K	–	378.2	–
[2], 304.15 K	–	379.47	–
[2], 305.15 K	–	380.58	–
[2], 306.15 K	–	381.75	–
[2], 307.15 K	–	382.43	–
[2], 308.15 K	–	384.6	–
[2], 309.15 K	–	385.42	–
[2], 310.15 K	–	386.61	–
[2], 311.15 K	–	387.89	–
[2], 312.15 K	–	389.03	–
[2], 313.15 K	–	390.28	–
[2], 314.15 K	–	391.58	–
[2], 315.15 K	–	392.8	–
[2], 316.15 K	–	394.11	–
[2], 317.15 K	–	395.3	–
[2], 318.15 K	–	396.66	–
[2], 318.39 K	–	396.93	–
